Data as given in EP4792822A1, “USE OF PEPTIDE AMIDE COMPOUND IN PREPARATION OF DRUG FOR […] AND VOMITING” (Haisco Pharmaceutical Group Co., Ltd., priority 2023, dated 2025).

Test system: tumour subjects planned to receive highly emetogenic chemotherapy for the first time
Assay: Example 4: active-controlled dose-finding study of compound 1 injection for the prevention of chemotherapy-induced nausea and vomiting (CINV)
Assay type: in vivo, patients
Procedure: Study period: Treatment duration: Within 120 h after the first administration of highly emetogenic chemotherapeutic agents; Follow-up duration: Day 10 ± 1 after the first administration of highly emetogenic chemotherapeutic agents.
Protocol: This study was a multicentre, randomised, double-blind, active-controlled study. About 180 tumour subjects planned to receive highly emetogenic chemotherapy for the first time were randomised in a 1 : 1 : 1 ratio to three groups, with 60 subjects per group. Pre-chemotherapy study drug administration was completed 30 ± 10 min before the start of administration of the highly emetogenic chemotherapeutic agents. The dosing regimen was as follows: administration was performed in the following order: • 1) Compound 1 (placebo)/compound 1: A single dose was administered 30 ± 10 min before the start of administration of highly emetogenic chemotherapeutic agents, via intravenous bolus injection, with an intravenous bolus injection time of not less than 30 s. • 2) Dolasetron mesylate injection/dolasetron mesylate injection matching placebo: After the administration of compound 1/compound 1 (placebo), 5 ml (100 mg) of dolasetron mesylate injection/matching placebo was administered via intravenous bolus injection without dilution, and the infusion line was flushed with normal saline before and after administration. […]

For `CC(=O)N1CC2(CCN(C(=O)[C@@H](CCCCN)NC(=O)[C@@H](CC(C)C)NC(=O)[C@@H](Cc3ccccc3)NC(=O)[C@H](N)Cc3ccccc3)CC2)C1` [Compound 1, (2R)-N-[(1R)-1-(2-acetyl-2,7-diazaspiro[3.5]nonane-7-carbonyl)-5-amino-pentyl]-2-[[(2R)-2-[[(2R)-2-amino-3-phenyl-propionyl]amino]-3-phenylpropionyl]amino]-4-methyl-pentanamide], the overall safety (Example 4) was “good overall safety” and the “effect on CINV” value (Example 4, with dolasetron/aprepitant/dexamethasone background regimens) was “preventive and/or ameliorating effect on CINV”.
